Columns and labels:
[1] = molecular target: T1, Tyrosine-protein phosphatase non-receptor type 2 (Homo sapiens) (UniProt P17706); assay: Compound was tested for inhibition of T-cell protein tyrosine phosphatase TC-PTP at a concentration of 10 uM in fluorometric assay using DiFMUP
T1 sequence (whole entry): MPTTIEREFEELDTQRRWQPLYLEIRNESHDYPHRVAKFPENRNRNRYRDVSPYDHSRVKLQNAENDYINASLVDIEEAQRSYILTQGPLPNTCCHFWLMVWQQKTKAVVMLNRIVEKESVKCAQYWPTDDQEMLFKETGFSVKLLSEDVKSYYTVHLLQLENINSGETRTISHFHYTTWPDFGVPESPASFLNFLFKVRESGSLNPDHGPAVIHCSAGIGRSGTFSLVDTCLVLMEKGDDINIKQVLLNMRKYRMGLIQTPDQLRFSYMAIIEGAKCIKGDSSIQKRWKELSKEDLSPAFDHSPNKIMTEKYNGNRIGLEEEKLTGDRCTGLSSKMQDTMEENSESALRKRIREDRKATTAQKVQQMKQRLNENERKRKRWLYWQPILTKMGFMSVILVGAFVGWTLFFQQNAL

[2] = molecular target: T2, Tyrosine-protein phosphatase non-receptor type 1 (Homo sapiens) (UniProt P18031); assay: Compound was tested for inhibition of Protein-tyrosine phosphatase 1B at a concentration of 10 uM in fluorometric assay using DiFMUP
T2 sequence (whole entry): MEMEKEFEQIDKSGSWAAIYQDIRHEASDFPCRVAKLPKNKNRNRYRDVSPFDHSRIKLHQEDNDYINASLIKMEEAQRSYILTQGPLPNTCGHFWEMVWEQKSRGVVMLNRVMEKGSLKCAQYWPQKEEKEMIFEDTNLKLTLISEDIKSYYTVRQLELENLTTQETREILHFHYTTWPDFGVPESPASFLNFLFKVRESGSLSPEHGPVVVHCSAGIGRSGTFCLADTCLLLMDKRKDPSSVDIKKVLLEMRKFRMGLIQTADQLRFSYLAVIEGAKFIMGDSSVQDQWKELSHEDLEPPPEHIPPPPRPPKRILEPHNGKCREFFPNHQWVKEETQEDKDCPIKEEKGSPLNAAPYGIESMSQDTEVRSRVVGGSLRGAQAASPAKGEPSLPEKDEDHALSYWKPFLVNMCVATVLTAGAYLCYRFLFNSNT

[3] = molecular target: Receptor-type tyrosine-protein phosphatase C (CD45) (Homo sapiens) (UniProt P08575); assay: Compound was tested for inhibition of CD45 tyrosine phosphatase at a concentration of 100 uM in fluorometric assay using DiFMUP
[4] = molecular target: Receptor-type tyrosine-protein phosphatase C (CD45) (Homo sapiens) (UniProt P08575); assay: Compound was tested for inhibition of CD45 tyrosine phosphatase at a concentration of 10 uM in fluorometric assay using DiFMUP
[5] = molecular target: T1, Tyrosine-protein phosphatase non-receptor type 2 (Homo sapiens); assay: Compound was tested for inhibition of T-cell protein tyrosine phosphatase TC-PTP at a concentration of 100 uM in fluorometric assay using DiFMUP
[6] = molecular target: Receptor-type tyrosine-protein phosphatase F (Homo sapiens) (UniProt P10586); assay: Compound was tested for inhibition of Lar tyrosine phosphatase at a concentration of 100 uM in fluorometric assay using DiFMUP
[7] = molecular target: Receptor-type tyrosine-protein phosphatase F (Homo sapiens) (UniProt P10586); assay: Compound was tested for inhibition of Lar tyrosine phosphatase at a concentration of 10 uM in fluorometric assay using DiFMUP
[8] = molecular target: T2, Tyrosine-protein phosphatase non-receptor type 1 (Homo sapiens); assay: Compound was tested for inhibition of Protein-tyrosine phosphatase 1B at a concentration of 100 uM in fluorometric assay using DiFMUP

Sequence of Receptor-type tyrosine-protein phosphatase C (CD45) (Homo sapiens) (P08575 whole entry, looked up): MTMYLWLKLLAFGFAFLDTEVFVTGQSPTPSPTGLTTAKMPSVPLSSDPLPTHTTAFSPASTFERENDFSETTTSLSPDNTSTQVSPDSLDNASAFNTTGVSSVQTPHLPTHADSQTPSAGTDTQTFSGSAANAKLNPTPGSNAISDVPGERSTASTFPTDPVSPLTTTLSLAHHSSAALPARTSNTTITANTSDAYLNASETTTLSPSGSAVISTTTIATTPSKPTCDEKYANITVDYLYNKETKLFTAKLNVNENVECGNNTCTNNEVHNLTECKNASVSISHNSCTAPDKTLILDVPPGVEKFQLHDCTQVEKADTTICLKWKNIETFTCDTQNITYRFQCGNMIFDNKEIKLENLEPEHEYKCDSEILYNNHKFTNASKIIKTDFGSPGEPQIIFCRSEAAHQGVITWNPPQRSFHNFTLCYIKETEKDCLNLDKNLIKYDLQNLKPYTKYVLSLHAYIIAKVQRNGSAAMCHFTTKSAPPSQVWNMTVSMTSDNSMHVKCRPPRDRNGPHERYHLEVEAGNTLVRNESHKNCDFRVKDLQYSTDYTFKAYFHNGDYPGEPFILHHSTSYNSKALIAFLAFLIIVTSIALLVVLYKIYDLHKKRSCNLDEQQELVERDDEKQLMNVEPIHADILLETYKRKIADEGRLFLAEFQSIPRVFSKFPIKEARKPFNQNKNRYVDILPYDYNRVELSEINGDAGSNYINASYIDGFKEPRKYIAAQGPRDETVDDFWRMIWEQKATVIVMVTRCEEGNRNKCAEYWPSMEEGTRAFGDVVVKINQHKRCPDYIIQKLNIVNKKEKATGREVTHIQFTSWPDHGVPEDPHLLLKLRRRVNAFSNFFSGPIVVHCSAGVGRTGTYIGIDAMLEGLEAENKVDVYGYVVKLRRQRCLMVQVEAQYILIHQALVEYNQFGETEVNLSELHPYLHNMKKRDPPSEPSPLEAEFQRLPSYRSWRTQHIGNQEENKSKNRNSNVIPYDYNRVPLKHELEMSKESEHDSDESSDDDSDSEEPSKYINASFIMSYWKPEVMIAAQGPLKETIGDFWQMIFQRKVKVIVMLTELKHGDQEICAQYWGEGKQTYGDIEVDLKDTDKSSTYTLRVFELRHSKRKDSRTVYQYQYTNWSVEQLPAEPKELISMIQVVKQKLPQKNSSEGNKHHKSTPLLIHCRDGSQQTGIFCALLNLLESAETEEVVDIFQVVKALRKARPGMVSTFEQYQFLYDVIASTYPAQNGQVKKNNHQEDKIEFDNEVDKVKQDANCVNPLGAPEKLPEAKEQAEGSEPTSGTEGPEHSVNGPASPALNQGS
Sequence of Receptor-type tyrosine-protein phosphatase F (Homo sapiens) (P10586 whole entry): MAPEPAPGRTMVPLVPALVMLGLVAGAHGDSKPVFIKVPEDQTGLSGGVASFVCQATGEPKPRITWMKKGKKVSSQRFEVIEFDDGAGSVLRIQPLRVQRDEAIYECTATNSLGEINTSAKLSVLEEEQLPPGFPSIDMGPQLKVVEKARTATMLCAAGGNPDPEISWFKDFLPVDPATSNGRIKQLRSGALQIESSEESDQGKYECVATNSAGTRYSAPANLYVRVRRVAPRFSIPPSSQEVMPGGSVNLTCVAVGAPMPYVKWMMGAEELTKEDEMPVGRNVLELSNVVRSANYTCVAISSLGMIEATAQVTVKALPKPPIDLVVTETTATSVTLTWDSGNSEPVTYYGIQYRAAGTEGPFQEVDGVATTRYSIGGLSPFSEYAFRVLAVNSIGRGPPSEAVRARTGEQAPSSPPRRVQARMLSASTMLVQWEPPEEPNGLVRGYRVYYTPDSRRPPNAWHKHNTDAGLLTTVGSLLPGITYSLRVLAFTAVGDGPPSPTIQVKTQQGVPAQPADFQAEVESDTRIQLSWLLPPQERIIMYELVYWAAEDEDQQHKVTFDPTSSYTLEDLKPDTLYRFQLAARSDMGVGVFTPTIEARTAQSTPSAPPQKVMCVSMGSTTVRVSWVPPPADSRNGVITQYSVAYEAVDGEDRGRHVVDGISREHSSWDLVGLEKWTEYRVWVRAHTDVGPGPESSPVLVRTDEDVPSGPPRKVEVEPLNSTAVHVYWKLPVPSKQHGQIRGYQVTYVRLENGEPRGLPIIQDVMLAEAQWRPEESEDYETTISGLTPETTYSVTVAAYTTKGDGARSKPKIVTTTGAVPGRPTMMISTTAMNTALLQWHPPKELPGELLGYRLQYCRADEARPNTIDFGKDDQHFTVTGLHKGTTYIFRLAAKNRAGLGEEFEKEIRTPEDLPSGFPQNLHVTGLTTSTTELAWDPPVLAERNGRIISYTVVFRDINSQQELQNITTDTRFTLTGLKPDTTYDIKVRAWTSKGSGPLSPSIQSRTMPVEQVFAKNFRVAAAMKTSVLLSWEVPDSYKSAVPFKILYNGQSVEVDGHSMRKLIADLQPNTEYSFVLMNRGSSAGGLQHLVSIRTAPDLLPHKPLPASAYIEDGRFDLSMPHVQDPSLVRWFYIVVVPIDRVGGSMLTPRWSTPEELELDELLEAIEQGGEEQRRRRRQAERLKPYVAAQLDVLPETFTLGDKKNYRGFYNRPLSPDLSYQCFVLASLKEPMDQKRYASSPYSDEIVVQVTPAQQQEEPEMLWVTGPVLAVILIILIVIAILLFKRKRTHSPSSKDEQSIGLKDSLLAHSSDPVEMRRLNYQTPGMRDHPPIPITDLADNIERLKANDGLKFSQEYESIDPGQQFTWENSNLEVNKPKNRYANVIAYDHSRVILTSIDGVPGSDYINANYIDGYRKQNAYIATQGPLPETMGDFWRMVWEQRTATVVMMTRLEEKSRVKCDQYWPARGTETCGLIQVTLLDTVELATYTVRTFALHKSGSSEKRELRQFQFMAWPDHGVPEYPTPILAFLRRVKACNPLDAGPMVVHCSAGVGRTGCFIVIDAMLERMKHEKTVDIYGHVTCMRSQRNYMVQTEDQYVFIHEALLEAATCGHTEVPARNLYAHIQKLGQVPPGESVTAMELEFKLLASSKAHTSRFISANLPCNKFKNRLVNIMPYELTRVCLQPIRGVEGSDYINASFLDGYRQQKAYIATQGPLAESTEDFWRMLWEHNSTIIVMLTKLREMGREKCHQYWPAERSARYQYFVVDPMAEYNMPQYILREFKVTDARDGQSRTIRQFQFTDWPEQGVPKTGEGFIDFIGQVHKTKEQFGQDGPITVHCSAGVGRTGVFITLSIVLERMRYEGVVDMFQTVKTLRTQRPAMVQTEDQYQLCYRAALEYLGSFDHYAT

Structure (SMILES) | inhibition [1] [%] | inhibition [2] [%] | inhibition [3] [%] | inhibition [4] [%] | inhibition [5] [%] | inhibition [6] [%] | inhibition [7] [%] | inhibition [8] [%]
CC(Cn1c(=O)n2n(c1=O)C(C(=O)NC(Cc1ccc3sccc(=O)c3c1)C(=O)O)C=CC2CCCC(=O)O)c1ccccc1 (configuration not stated) | 20 | 55 | 55 | 15 | 90 | 50 | 10 | 95
O=C(O)CCCC1C=CC(C(=O)NC(Cc2ccc3sccc(=O)c3c2)C(=O)O)n2c(=O)n(-c3ccc(Oc4ccccc4)cc3)c(=O)n21 (configuration not stated) | 85 | 75 | 70 | 20 | 100 | 70 | 50 | 100
O=C(O)CCCC1C=CC(C(=O)NC(Cc2ccc3sccc(=O)c3c2)C(=O)O)n2c(=O)n(CC3CCCCC3)c(=O)n21 (configuration not stated) | 10 | 40 | 70 | 20 | 20 | 10 | 0 | 70
O=C(O)CCCC1C=CC(C(=O)NC(Cc2ccc3sccc(=O)c3c2)C(=O)O)n2c(=O)n(Cc3cc(F)ccc3F)c(=O)n21 (configuration not stated) | 85 | 0 | 50 | 5 | 100 | 50 | 25 | 95
